Format in all cases: functional
In one test the test system is Escherichia coli. Put plainly: Compound (isolated from leaves of Cistus monspeliensis) was tested for antimicrobial activity against Escherichia coli (ATCC 25922).
Another test concerns Klebsiella pneumoniae. The experiment in a line: Compound (isolated from leaves of Cistus monspeliensis) was tested for antimicrobial activity against Klebsiella pneumoniae (ATCC 13883).
The test system of test [1] is Staphylococcus epidermidis. The experiment in a line: Compound (isolated from leaves of Cistus monspeliensis) was tested for antimicrobial activity against Staphylococcus epidermidis (ATCC 12228).
Another test relates to Staphylococcus hominis. The experiment in a line: Compound (isolated from leaves of Cistus monspeliensis) was tested for antimicrobial activity against Staphylococcus hominis (ATCC 27844).
Another test relates to Staphylococcus aureus. The experiment in a line: Compound (isolated from leaves of Cistus monspeliensis) was tested for antimicrobial activity against Staphylococcus aureus (ATCC 6538).

Converted amounts (≈) assume the structure as drawn.

As to `C=C[C@@]1(C)CC[C@@H]2[C@](C)(CCC3C(C)(C)CCC[C@]32C)O1` (some centres not stated), the MIC50 against Escherichia coli and against Klebsiella pneumoniae was > 2000 µg/mL each time.
In the case of `CN[C@@H]1[C@H](O[C@H]2[C@H](O[C@H]3[C@H](O)[C@@H](O)[C@H](N=C(N)N)[C@@H](O)[C@@H]3N=C(N)N)O[C@@H](C)[C@]2(O)C=O)O[C@@H](CO)[C@H](O)[C@H]1O` [STREPTOMYCIN], the MIC50 was found to be 0.6 µg/mL (≈ 1.03 µM) in the test with Escherichia coli; 0.6 µg/mL (≈ 1.03 µM) against Klebsiella pneumoniae; 2.1 µg/mL (≈ 3.61 µM) in test [1]; 2.1 µg/mL (≈ 3.61 µM) against Staphylococcus hominis; 2.1 µg/mL (≈ 3.61 µM) in the test on Staphylococcus aureus.

As usually defined, the MIC50 is an inhibitory concentration at the 50% level, which refers to growth in some studies and to a panel of isolates in others. Low readings indicate greater potency, high ones weaker potency.

These data come from ChEMBL document CHEMBL1135013, “A simple and rapid method for the differentiation of C-13 manoyl oxide epimers in biologically important samples using GC-MS analysis supported with NMR spectroscopy and computational chemistry results” (2002).
